Molecules are shown by their SMILES.

Series [1] concerns hepatic gene expression. Kind of series: Real-time RT-PCR of hepatic mRNA after 13-week exposure: TCDD 100, PeCDF 200, PCB126 1,000 ng/kg/day, PCB153 1,000 μg/kg/day. Conditions: liver, 13 weeks; average (± 1 SD) of three RNA pools; normalized to 18S RNA. Format: in vivo, female Harlan Sprague-Dawley rats. Here is the method:
Tissues for this study were provided by the NTP ([NTP 2004a], [2004b], [2004c]) as part of a 2-year bioassay for relative carcinogenic potencies of dioxin-like chemicals. […] Toxicologic dose equivalence was based on the current World Health Organization TEF recommendations ([Van den Berg et al. 1998]). Subgroups of rats were sacrificed at 14, 31, and 53 weeks (corresponding to 13, 30, or 52 weeks of exposure), and target organs were removed, flash frozen in liquid nitrogen, and stored at −70°C for mechanistic studies.
Frozen hepatic tissue was disrupted by homogenization with a rotor stator homogenizer, and total RNA was isolated with Qiagen RNeasy columns Qiagen Inc., Valencia, CA). There were a total of six rats in each exposure group. Three pools of RNA were created from each exposure group (n = 2 rats per pool), similar to the experimental design of [Yechoor et al. (2002)]. Pooled total RNA was further purified using the Qiagen poly(A) RNA isolation kit. RNA integrity was assessed by the Agilent Bioanalyzer 2100 (Agilent Technologies, Palo Alto, CA). […] Poly(A) RNA was transformed into labeled cRNA by the Roswell Park Cancer Institute Microarray and Genomics Core Facility (Buffalo, NY). cRNA from each pool was fragmented and its quality evaluated with Affymetrix GeneChip Test3 arrays (Santa Clara, CA) by comparing 3′:5′ signal ratios of housekeeping genes. High-quality cRNA (3′:5′ signal ratio near 1) was subsequently hybridized to Affymetrix RGU34A GeneChips, and chips were scanned with the Affymetrix 428 scanner.
Reverse transcriptase reactions (80 μL) contained 20 μg total RNA, 0.5 mM dNTP mix, and 15 ng/μL random primers, 1 × first-strand buffer, 10 mM dithiothreitol, 27 U Rnasin RNase inhibitor (Promega, Madison, WI), and 800 U superscript reverse transcriptase (Invitrogen). A mixture containing total RNA, dNTPs, and random primers was heated to 65°C for 5 min to denature the RNA and then immediately placed on ice. The remaining components of the reaction mixture were then added to the RNA, and cDNA synthesis was performed at 42°C for 60 min. Reactions were terminated by heating to 70°C for 10 min.
PCR primers were selected from GenBank database sequences with Primer3 software ([Rozen and Skaletsky 2000]). […] Nonspecific mispriming was managed by a mispriming threshold of 10.0 in the rodent mispriming library.
Real-time PCR was performed with the SYBR Green PCR kit from Applied Biosystems (Foster City, CA) according to the manufacturer’s instructions. PCR reactions (25 μL) contained diluted cDNA, 1 × SYBR Green buffer, 3 mM MgCl2, 0.2 mM dNTP mix, 0.2 μM left and right primers, 10 nM fluorescein, and 1.1 U of Amplitaq Gold polymerase. The reaction was initiated by incubation at 95°C for 10 min and followed by 40 cycles of denaturation at 95°C for 15 sec and primer annealing/extension at 60°C for 1 min. Sample fluorescence was evaluated during the annealing/extension step. Upon completion of thermocycling, the specificity of each reaction was evaluated by melting analysis. Samples were heated to 95°C for 2 min and cooled to 55°C. The temperature was maintained at 55°C for 15 sec to analyze sample fluorescence, and the temperature was increased by increments of 0.5°C followed by 15 sec of fluorescence analysis for a total of 80 cycles.
The efficiency of each primer set was validated over a range of cDNA concentrations. […] After primer validation, PCR reactions were performed with a single cDNA concentration, and the threshold cycle (Ct) was determined for each reaction. The difference (ΔCt) between the threshold cycle for the target gene and endogenous control gene (18S RNA) was calculated for each sample, and the 18S normalized relative expression of each gene was calculated by the comparative method according to the Applied Biosystems’ User Bulletin No. 2 for the ABI Prism Sequence Detection System (Applied Biosystems), as described by [Imasato et al. (2002)].

Series [2] has as its system hepatic gene expression. The conditions noted are these: liver, 13 weeks; average (± 1 SD) of three GeneChips.
For series [3] the following is noted: 13 weeks; mean ±SD of 10 rats; TCDD 100, PeCDF 200, PCB126 1,000 ng/kg/day, PCB153 1,000 μg/kg/day; ref NTP 2004a, 2004b, 2004c; cited from earlier work.
Series [4] relates to liver. Conditions: 13 weeks, ref NTP 2004a, 2004b, 2004c, cited from earlier work; for Liver hypertrophy, incidence (number of rats of 10): TCDD 100, PeCDF 200, PCB126 1,000 ng/kg/day, PCB153 1,000 μg/kg/day; for Liver hypertrophy, severity in words: highest dose of each compound; for Liver hypertrophy, mean severity score: 1, minimal, 2, mild, 3, moderate, 4, marked.
For series [5], the system named is liver. The conditions noted are these: TCDD 100, PeCDF 200, PCB126 1,000 ng/kg/day, ref NTP 2004a, 2004b, 2004c; cited from earlier work.
[6] abbreviates: same doses, 1, minimal to 4, marked.

`Clc1ccc(-c2cc(Cl)c(Cl)c(Cl)c2)cc1Cl` [PCB126, 3,3′,4,4′,5-pentachlorobiphenyl]: in the series with hepatic gene expression [1], the “C-CAM4 mRNA, average change vs vehicle, RT-PCR” value is 3.5 (2.6 to 4.7); the “CAP2 mRNA, average change vs vehicle, RT-PCR” value is given as 119.4 (104 to 137.2); the “CES3 mRNA, average change vs vehicle, RT-PCR” value was −1.4 (−1.5 to −1.3); the “CYP1B1 mRNA, average change vs vehicle, RT-PCR” value was 106.4 (98.2 to 115.3). Also, in the series on hepatic gene expression [1], the “CYP3A9 mRNA, average change vs vehicle, RT-PCR” value was −28.5 (−30.2 to −26.9); the “SERPIN7A mRNA, average change vs vehicle, RT-PCR” value is on record as −8.4 (−12 to −5.9); the “SST mRNA, average change vs vehicle, RT-PCR” value is on record as −1.5 (−1.6 to −1.4). In addition, in the series with hepatic gene expression [2], the “C-CAM4 mRNA, average change vs vehicle, Microarray” value is reported as 25.1 (4 to 46.2); the “CAP2 mRNA, average change vs vehicle, Microarray” value is listed as 7.6 (2 to 13.2); the “CES3 mRNA, average change vs vehicle, Microarray” value is −4 (−4.4 to −3.6); the “CYP1B1 mRNA, average change vs vehicle, Microarray” value is 317.1 (41.1 to 593.1). Besides, in the series on hepatic gene expression [2], the “SERPIN7A mRNA, average change vs vehicle, Microarray” value was −4 (−4.9 to −3.1) and the “SST mRNA, average change vs vehicle, Microarray” value is recorded as −6.4 (−9.4 to −3.4). For the same molecule, the Liver levels in series [3] is given as 412.6 ± 73.5 ng/g. Moreover, in the series on liver [4], the “Liver hypertrophy, incidence (number of rats of 10)” value (from here on “Liver hypertrophy, incidence”) was 10 and the “Liver hypertrophy, severity in words” value is on record as “minimal to mild”. In addition, in the series on liver [4] (same doses), the “Liver hypertrophy, mean severity score” value is 1.7; the “Diffuse fatty change, incidence (number of rats of 10)” value (shortened to “Diffuse fatty change, incidence”) is listed as 0; the “Multinucleated hepatocytes, incidence (number of rats of 10)” value (shortened to “Multinucleated hepatocytes, incidence”) was 0; the “Pigmentation, incidence (number of rats of 10)” value (“Pigmentation, incidence” for short) was 0. In addition, the “liver findings after 2 years of exposure” value with liver [5] was “cholangiocarcinoma, hepatocellular adenoma, toxic hepatopathy, multinucleated hepatocytes, diffuse fatty change, and liver pigmentation”.
With `Clc1cc(Cl)c(-c2cc(Cl)c(Cl)cc2Cl)cc1Cl` [PCB153, 2,2′,4,4′,5,5′-hexachlorobiphenyl], in the series on hepatic gene expression [1], the “C-CAM4 mRNA, average change vs vehicle, RT-PCR” value was −1.1 (−1.3 to 1); the “CAP2 mRNA, average change vs vehicle, RT-PCR” value is −1.3 (−1.5 to −1.1); the “CES3 mRNA, average change vs vehicle, RT-PCR” value was 2.4 (2.1 to 2.6); the “CYP1B1 mRNA, average change vs vehicle, RT-PCR” value was −1.2 (−1.6 to 1). In addition, in the series with hepatic gene expression [1], the “CYP3A9 mRNA, average change vs vehicle, RT-PCR” value is reported as −1.8 (−2.1 to −1.5); the “SERPIN7A mRNA, average change vs vehicle, RT-PCR” value is recorded as −1.2 (−1.5 to 1); the “SST mRNA, average change vs vehicle, RT-PCR” value is given as −3 (−3.5 to −2.5). Besides, in the series with hepatic gene expression [2], the “CES3 mRNA, average change vs vehicle, Microarray” value is given as 1.3 (1 to 1.6); the “CYP1B1 mRNA, average change vs vehicle, Microarray” value was 2.1 (1 to 3.2); the “CYP3A9 mRNA, average change vs vehicle, Microarray” value was 1.6 (0.8 to 2.4); the “SERPIN7A mRNA, average change vs vehicle, Microarray” value is reported as 1.6 (1.3 to 1.9). Further, the “SST mRNA, average change vs vehicle, Microarray” value with hepatic gene expression [2] is −9.5 (−10.1 to −8.9). Also, the Liver levels in series [3] is 9,250 ± 2,061 ng/g. In the series on liver [4], the “Liver hypertrophy, incidence” value is listed as 9 and the “Liver hypertrophy, severity in words” value was “minimal”. In the series with liver [4] (same doses), the “Liver hypertrophy, mean severity score” value was 1.2; the “Diffuse fatty change, incidence” value is given as 0; the “Multinucleated hepatocytes, incidence” value is on record as 0; the “Pigmentation, incidence” value is 0.
In the case of `Clc1cc2oc3c(Cl)c(Cl)c(Cl)cc3c2cc1Cl` [PeCDF, 2,3,4,7,8-pentachlorodibenzofuran], in the series on hepatic gene expression [1], the “C-CAM4 mRNA, average change vs vehicle, RT-PCR” value was 2.5 (2.3 to 2.7); the “CAP2 mRNA, average change vs vehicle, RT-PCR” value was 20.2 (17.8 to 22.9); the “CYP1B1 mRNA, average change vs vehicle, RT-PCR” value was 59.7 (48.3 to 73.8); the “CYP3A9 mRNA, average change vs vehicle, RT-PCR” value is recorded as −4.2 (−5 to −3.5). Moreover, in the series with hepatic gene expression [1], the “SERPIN7A mRNA, average change vs vehicle, RT-PCR” value is recorded as −29.9 (−32 to −27.9) and the “SST mRNA, average change vs vehicle, RT-PCR” value is recorded as −1.6 (−2 to −1.2). In the series on hepatic gene expression [2], the “C-CAM4 mRNA, average change vs vehicle, Microarray” value is reported as 37.4 (25.5 to 49.3); the “CAP2 mRNA, average change vs vehicle, Microarray” value is reported as 10.9 (4 to 17.8); the “CES3 mRNA, average change vs vehicle, Microarray” value is reported as −2.8 (−3.8 to −1.8); the “CYP1B1 mRNA, average change vs vehicle, Microarray” value is listed as 493.3 (310.1 to 676.5). In the series with hepatic gene expression [2], the “CYP3A9 mRNA, average change vs vehicle, Microarray” value is −2.3 (−3.3 to −1.3); the “SERPIN7A mRNA, average change vs vehicle, Microarray” value is on record as −2.7 (−3.6 to −1.8); the “SST mRNA, average change vs vehicle, Microarray” value is reported as −8.3 (−11.1 to −5.5). Also, in series [3], the Liver levels is 132.9 ± 47.4 ng/g. Also, in the series on liver [4] (same doses), the “Multinucleated hepatocytes, incidence” value is on record as 0.
With `Clc1cc2c(cc1Cl)Oc1cc(Cl)c(Cl)cc1O2` [TCDD, 2,3,7,8-tetrachlorodibenzo-p-dioxin], in the series with hepatic gene expression [1], the “C-CAM4 mRNA, average change vs vehicle, RT-PCR” value is 4.1 (3.8 to 4.4); the “CAP2 mRNA, average change vs vehicle, RT-PCR” value is reported as 168.9 (147.9 to 192.9); the “CES3 mRNA, average change vs vehicle, RT-PCR” value was −4.8 (−5.2 to −4.4); the “CYP1B1 mRNA, average change vs vehicle, RT-PCR” value is recorded as 256 (236.3 to 277.3). Besides, in the series on hepatic gene expression [1], the “CYP3A9 mRNA, average change vs vehicle, RT-PCR” value is listed as −1024 (−1201.8 to −872.5); the “SERPIN7A mRNA, average change vs vehicle, RT-PCR” value was −26.6 (−30.2 to −23.4); the “SST mRNA, average change vs vehicle, RT-PCR” value is reported as −36.8 (−46.4 to −29.1). Moreover, in the series on hepatic gene expression [2], the “C-CAM4 mRNA, average change vs vehicle, Microarray” value is 133.4 (112.1 to 154.7); the “CAP2 mRNA, average change vs vehicle, Microarray” value is recorded as 53.6 (31.1 to 76.1); the “CES3 mRNA, average change vs vehicle, Microarray” value is recorded as −8.1 (−9.9 to −6.3); the “CYP1B1 mRNA, average change vs vehicle, Microarray” value was 676.3 (470.8 to 881.8). For the same molecule, in the series with hepatic gene expression [2], the “CYP3A9 mRNA, average change vs vehicle, Microarray” value is recorded as −35.4 (−53.4 to −17.4); the “SERPIN7A mRNA, average change vs vehicle, Microarray” value is reported as −11.5 (−17.2 to −5.8); the “SST mRNA, average change vs vehicle, Microarray” value was −8 (−10.5 to −5.5). For the same molecule, the Liver levels in series [3] was 18.3 ± 0.8 ng/g. Also, in the series on liver [4], the “Liver hypertrophy, incidence” value was 10 and the “Liver hypertrophy, severity in words” value is “mild to moderate”. In the series on liver [4] (setting [6]), the “Diffuse fatty change, mean severity score” value is on record as 1.0 and the “Multinucleated hepatocytes, mean severity score” value is 1.0. In the series on liver [4] (same doses), the “Liver hypertrophy, mean severity score” value is on record as 2.3; the “Diffuse fatty change, incidence” value was 2; the “Multinucleated hepatocytes, incidence” value is on record as 3; the “Pigmentation, incidence” value is 0. Besides, the “liver findings after 2 years of exposure” value in the series with liver [5] was “cholangiocarcinoma, hepatocellular adenoma, toxic hepatopathy, multinucleated hepatocytes, diffuse fatty change, and liver pigmentation”.

These data come from PMC1247661 (Environmental Health Perspectives, 2004).
